The record followed here is patent publication US10407408B2, “Imide derivatives and use thereof as medicine” (MITSUBISHI TANABE PHARMA CORPORATION, priority 2015, dated 2019).

The IC50 is the concentration that gives 50% inhibition.

For this assay, the system named is proMMP-9 production by human TNFα stimulated THP-1 cell. Nature of the assay: Action on proMMP-9 production by human TNFα stimulated THP-1 cell (ELISA of culture supernatant). It is filed as cell-based. The conditions noted are these: THP-1 cells, human TNFα 10 ng/mL, 24 hr; IC50 from 3 concentrations (5, 50, 500 or 1, 10, 100 nmol/L); read-out: proMMP-9 suppression rate IC50. As to the method: Experimental Example 1: Action of Human TNFα Stimulated THP-1 Cell on proMMP-9 Production
THP-1 cell (human monocytic leukemia cell line) was adjusted to 1×10^7 cells/mL in a culture medium (10% fetal bovine serum/RPMI1640 medium), and dispensed to a 96 well multiplate. This was equilibrated under the conditions of 37° C./5% CO2, and a culture medium containing human TNFα (final concentration 10 ng/mL) and a test compound was dissolved therein. After incubation under the conditions of 37° C./5% CO2 for 24 hr, the culture medium was centrifuged and the culture supernatant was collected, which was subjected to the following measurement.
Quantification of proMMP-9 in Culture Supernatant
The proMMP-9 concentration of the collected culture supernatant was quantified using a commercially available measurement reagent (manufactured by GE Healthcare, MMP-9, Human, Biotrak ELISA System).
Calculation of proMMP-9 Suppression Rate
The proMMP-9 suppression rate of the test compound was calculated from the following formula: % suppression=100−((Test−Min)/(Max−Min)×100) wherein Max is proMMP-9 concentration of culture supernatant induced by stimulation with human TNFα, without addition of a test compound (added with solvent alone) Min is proMMP-9 concentration of culture supernatant without addition of a test compound (added with solvent alone) and without stimulation with human TNFα, and Test is proMMP-9 concentration of culture supernatant induced by stimulation with human TNFα when a test compound is added.
Furthermore, the concentration of the test compound necessary for suppressing proMMP-9 production by human TNFα stimulated THP-1 cell by 50% (IC50 value) was calculated from 3 points of proMMP-9 suppression rate at test compound concentrations of 5, 50 and 500 nmol/L or 1, 10 and 100 nmol/L.
MMP-9 is produced as a precursor proMMP-9 by the stimulated cells, extracellularly activated and expresses the physiological activity as MMP-9. That is, evaluation of the suppression of proMMP-9 produced by the cell means evaluation of the suppression of production of MMP-9. The same applies to MMP-2, and evaluation of the suppression of proMMP-2 produced by the cell means evaluation of the suppression of production of MMP-2.
On the technique in general: ELISA stands for enzyme-linked immunosorbent assay.

Structures are written as SMILES. Counter-ions that a name gives are not always drawn.

`Cc1cnc(N2CCN(C(=O)c3ccc(C4(C(C)C)NC(=O)NC4=O)c(O)c3)CC2)c(C)c1` (stereo not drawn) [Example 20, 5-{4-[4-(3,5-dimethylpyridin-2-yl)piperazine-1-carbonyl]-2-hydroxyphenyl}-5-isopropylimidazolidine-2,4-dione]: the IC50 worked out at 6 nM.

Consider `CC[C@]1(c2ccc(C(=O)N3CCC(c4cnn(-c5ccc(C)cc5)c4)CC3)cc2)NC(=O)NC1=O` [Example 27, (R)-5-ethyl-5-{4-[4-(1-p-tolyl-1H-pyrazol-4-yl)piperidine-1-carbonyl]phenyl}imidazolidine-2,4-dione], for which the half-maximal inhibitory concentration (IC50) came out at 16 nM.

Take `COC(=O)[C@@H]1CN(c2ncc(C)cc2C)CCN1C(=O)c1ccc([C@@]2(C(C)C)NC(=O)NC2=O)cc1` [Example 64, (S)-4-(3,5-dimethylpyridin-2-yl)-1-[4-((R)-4-isopropyl-2,5-dioxoimidazolidin-4-yl)benzoyl]piperazine-2-carboxylic acid methyl ester]: the IC50 was determined as 64 nM.

With `Cc1cnc(N2CCN(C(=O)c3ccc([C@@]4(C(C)C)NC(=O)NC4=O)cc3)C3(CCC3)C2)c(C)c1` [Example 65, (R)-5-{4-[8-(3,5-dimethylpyridin-2-yl)-5,8-diazaspiro[3.5]nonane-5-carbonyl]phenyl}-5-isopropylimidazolidine-2,4-dione], the IC50 was found to be 9 nM.

In the case of `COCC1CN(C(=O)c2ccc([C@@]3(C(C)C)NC(=O)NC3=O)cc2)CCN1c1ncc(C)cc1C` (stereo partly drawn) [Example 66, (R)-5-{4-[4-(3,5-dimethylpyridin-2-yl)-3-methoxymethylpiperazine-1-carbonyl]phenyl}-5-isopropylimidazolidine-2,4-dione], the IC50 is under 5 nM.

Consider `Cc1cnc(N2CCN(C(=O)c3ccc(C4(CF)NC(=O)NC4=O)cc3)C(C)(C)C2)c(C)c1` (stereo not drawn) [Example 69, 5-{4-[4-(3,5-dimethylpyridin-2-yl)-2,2-dimethylpiperazine-1-carbonyl]phenyl}-5-fluoromethylimidazolidine-2,4-dione], for which the IC50 was 11 nM.

Turning to `Cc1cc(C)c(N2CCN(C(=O)c3ccc(C4(c5ccccc5)NC(=O)NC4=O)cc3)CC2)nc1C` (stereo not drawn) [Example 108, 5-phenyl-5-{4-[4-(3,5,6-trimethylpyridin-2-yl)piperazine-1-carbonyl]phenyl}imidazolidine-2,4-dione], the IC50 stood at 11 nM.

Regarding `COC1(C2(c3ccc(C(=O)N4CCN(c5ncc(C)cc5C)CC4)cc3)NC(=O)NC2=O)CC1` (stereo not drawn) [Example 112, 5-{4-[4-(3,5-dimethylpyridin-2-yl)piperazine-1-carbonyl]phenyl}-5-(1-methoxycyclopropyl) imidazolidine-2,4-dione], the IC50 stood at 11 nM.

As to `Cc1cnc(N2CCN(C(=O)c3ccc(C4(C(C)C)NC(=O)NC4=O)s3)CC2)c(C)c1` (stereo not drawn) [Example 114, 5-{5-[4-(3,5-dimethylpyridin-2-yl)piperazine-1-carbonyl]thiophen-2-yl}-5-isopropylimidazolidine-2,4-dione], the IC50 amounted to 82 nM.

On to `CC[C@]1(c2ccc(C(=O)N3CCN(c4ncc(C)cc4C)CC3)cc2)NC(=O)NC1=O` [Example 124, (R)-5-{4-[4-(3,5-dimethylpyridin-2-yl)piperazine-1-carbonyl]phenyl}-5-ethylimidazolidine-2,4-dione], for which the 50% inhibitory concentration (IC50) was 1 nM.

As for `Cc1cc(C2(C)NC(=O)NC2=O)ccc1C(=O)N1CCN(c2nc(C)c(C)cc2C)CC1` (stereo not drawn) [Example 126, 5-methyl-5-{3-methyl-4-[4-(3,5,6-trimethylpyridin-2-yl)piperazine-1-carbonyl]phenyl}imidazolidine-2,4-dione], the IC50 stood at 8 nM.

For `Cc1cnc(N2CCN(C(=O)c3ccc(C4(C(C)(C)C)NC(=O)NC4=O)cc3)CC2)c(C)n1` (stereo not drawn) [Example 137, 5-tert-butyl-5-[4-(3′,5′-dimethyl-2,3,5,6-tetrahydro[1,2′]bipyrazinyl-4-carbonyl)phenyl]imidazolidine-2,4-dione], the concentration for half-maximal inhibition (IC50) was found to be 14 nM.

With `Cc1nnc(N2CCN(C(=O)c3ccc([C@@]4(C(C)C)NC(=O)NC4=O)cc3)CC2)c(C)c1C` [Example 141, (R)-5-isopropyl-5-{4-[4-(4,5,6-trimethylpyridazin-3-yl)piperazine-1-carbonyl]phenyl}imidazolidine-2,4-dione], the IC50 came to 70 nM.

As for `Cc1ccc(C(=O)C2CCN(C(=O)c3ccc([C@@]4(C)NC(=O)NC4=O)cc3)CC2)cc1` [Example 150, (R)-5-methyl-5-{4-[4-(4-methylbenzoyl)piperidine-1-carbonyl]phenyl}imidazolidine-2,4-dione], the IC50 turned out to be 25 nM.

Take `Cc1ccc(OC2CCN(C(=O)c3ccc([C@@]4(C)NC(=O)NC4=O)cc3)CC2)cc1` [Example 152, (R)-5-methyl-5-[4-(4-p-tolyloxypiperidine-1-carbonyl]phenyl}imidazolidine-2,4-dione]: the IC50 is 14 nM.

For the molecule `Cc1cnc2c(c1)CCN2[C@H]1CCN(C(=O)c2ccc([C@@]3(C(C)C)NC(=O)NC3=O)cc2)C1` [Example 158, (R)-5-isopropyl-5-{4-[(S)-3-(5-methyl-2,3-dihydropyrrolo[2,3-b]pyridin-1-yl)pyrrolidine-1-carbonyl]phenyl}imidazolidine-2,4-dione], the IC50 worked out at 49 nM.

In the case of `CCC1(c2ccc(C(=O)N3CCC(c4cc(-c5ccc(C)cc5)[nH]n4)CC3)cn2)CC(=O)NC1=O` (stereo not drawn) [Example 165, 3-ethyl-3-{5-[4-(5-p-tolyl-1H-pyrazol-3-yl)piperidine-1-carbonyl}pyridin-2-yl}pyrrolidine-2,5-dione], the IC50 amounted to 90 nM.

Turning to `CC[C@]1(c2ccc(C(=O)N3CCC(c4nnn(-c5ccc(C)cc5)n4)CC3)cc2)NC(=O)NC1=O` [Example 170, (R)-5-ethyl-5-{4-[4-(2-p-tolyl-2H-tetrazol-5-yl)piperidine-1-carbonyl]phenyl}imidazolidine-2,4-dione], the IC50 came to 60 nM.

On to `CC[C@]1(c2ccc(C(=O)N3CCC(c4cn(-c5ccc(C)cc5)cn4)CC3)cc2)NC(=O)NC1=O` [Example 175, (R)-5-ethyl-5-{4-[4-(1-p-tolyl-1H-imidazol-4-yl)piperidine-1-carbonyl]phenyl}imidazolidine-2,4-dione], for which the IC50 came out at 88 nM.

Consider `CCC1(c2ccc(C(=O)N3CCC(c4cn(-c5ccc(C)cc5)nn4)CC3)cc2F)NC(=O)NC1=O` (stereo not drawn) [Example 178, 5-ethyl-5-{2-fluoro-4-[4-(1-p-tolyl-1H-[1,2,3]triazol-4-yl)piperidine-1-carbonyl]phenyl}imidazolidine-2,4-dione], for which the IC50 came to 34 nM.

In the case of `Cc1cnc(N2CCN(C(=O)c3ccc(C4(C(C)C)C(=O)NC(=O)N4C)cc3)CC2)c(C)c1` (stereo not drawn) [Example 182, 5-{4-[4-(3,5-dimethylpyridin-2-yl)piperazine-1-carbonyl]phenyl}-5-isopropyl-1-methylimidazolidine-2,4-dione], the IC50 was 67 nM.

Take `Cc1cnc(NC2CN(C(=O)c3ccc([C@@]4(C(C)C)NC(=O)NC4=O)cc3)C2)c(C)c1` [Example 185, (R)-5-{4-[3-(3,5-dimethylpyridin-2-ylamino)azetidine-1-carbonyl]phenyl}-5-isopropylimidazolidine-2,4-dione.hydrochloride]: the IC50 came out at 82 nM.

In the case of `Cc1cnc(N[C@@H]2CN(C(=O)c3ccc([C@@]4(C(C)C)NC(=O)NC4=O)cc3)C[C@H]2O)c(C)c1` [Example 187, (R)-5-{4-[(3R,4R)-3-(3,5-dimethylpyridin-2-ylamino)-4-hydroxypyrrolidine-1-carbonyl]phenyl}-5-isopropylimidazolidine-2,4-dione], the half-inhibitory concentration (IC50) is 19 nM.

For the molecule `Cc1cnc(N[C@H]2C[C@@H](C#N)N(C(=O)c3ccc([C@@]4(C(C)C)NC(=O)NC4=O)cc3)C2)c(C)c1` [Example 198, (2S,4S)-4-(3,5-dimethylpyridin-2-ylamino)-1-[4-((R)-4-isopropyl-2,5-dioxoimidazolidin-4-yl)benzoyl]pyrrolidine-2-carbonitrile], the IC50 amounted to 2 nM.

As to `Cc1cnc2nc(C3CCN(C(=O)c4ccc([C@@]5(C(C)C)NC(=O)NC5=O)cc4)CC3)sc2c1` [Example 220, (R)-5-isopropyl-5-{4-[4-(6-methylthiazolo[4,5-b]pyridin-2-yl)piperidine-1-carbonyl]phenyl}imidazolidine-2,4-dione], the IC50 amounted to 55 nM.

As to `Cc1ccc2nc(C3CCN(C(=O)c4ccc([C@@]5(C(C)C)NC(=O)NC5=O)cc4)CC3)oc2n1` [Example 221, (R)-5-isopropyl-5-{4-[4-(5-methyloxazolo[5,4-b]pyridin-2-yl)piperidine-1-carbonyl]phenyl}imidazolidine-2,4-dione], the IC50 stood at 72 nM.

Turning to `Cc1ccc2nc(C3CCN(C(=O)c4ccc([C@@]5(C(C)C)NC(=O)NC5=O)cc4)CC3)sc2n1` [Example 222, (R)-5-isopropyl-5-{4-[4-(5-methylthiazolo[5,4-b]pyridin-2-yl)piperidine-1-carbonyl]phenyl}imidazolidine-2,4-dione], the IC50 amounted to 76 nM.
